Assay results: patent US20240327429A1, “[1,3]Thiazolo[4,5-d]-pyrimidon-7-ones as inhibitors of NOX4” (Boehringer Ingelheim International GmbH, priority 2023, published 2024)
“And” between values parts separate entries of the source, which are not always exact repeats. Equal values may be shown once.

Columns and labels:
human hepatocytes = assay: Evaluation of hepatocyte clearance (metabolic stability); assay type: in vitro ADME; details: % of hepatic blood flow
Description: The metabolic degradation of the test compound is assayed in a hepatocyte suspension. Hepatocytes (cryopreserved) are incubated in Dulbecco's modified eagle medium (supplemented with […] glucagon/500 mL, 2.5 mg insulin/500 mL and 3.75 mg/500 mL hydrocortisone) containing 5% human serum.
Following a 30 min preincubation in an incubator (37° C., 10% CO2) 5 μl of test compound solution (80 μM; from 2 mM in DMSO stock solution diluted 1:25 with medium) are added into 395 μl hepatocyte suspension (cell density in the range 0.25-5 Mio cells/mL, typically 1 Mio cells/mL; final concentration of test compound 1 μM, final DMSO concentration 0.05%).
The cells are incubated for six hours (incubator, orbital shaker) and samples (25 μl) are taken at 0, 0.5, 1, 2, 4 and 6 hours. Samples are transferred into acetonitrile and pelleted by centrifugation (5 min). The supernatant is transferred to a new 96-deepwell plate, evaporated under nitrogen and resuspended.
Decline of Parent Compound is Analyzed by HPLC-MS/MS.
CLint is Calculated as Follows:
CL_[…]=Dose/AUC=(C0/CD)/(AUD+clast/k)×1000/60. • C0: initial concentration in the incubation [μM], CD: cell density of vital cells [10^6 cells/mL], AUD: area under the data [μM×h], clast: concentration of last data point [μM], • k: slope of the regression line for parent decline [h-1].
The calculated in vitro hepatic intrinsic clearance can be scaled up to the intrinsic in vivo hepatic clearance and used to predict hepatic in vivo blood clearance (CL) by the use of a liver model (well stirred model).
CL_[…]_INVIVO[ml/min/kg]=(CL_[…][μL/min/10^6 cells]×hepatocellularity[10^6 cells/g liver]×liver factor[g/kg bodyweight])/1000
CL[ml/min/kg]=CL_[…]_INVIVO[ml/min/kg]×hepatic blood flow[ml/min/kg]/(CL_[…]_INVIVO[ml/min/kg]+hepatic blood flow[ml/min/kg])

human NOX1 (hNOX1) = target: T1, human NOX1 (hNOX1) (Homo sapiens, UniProt Q9Y5S8); assay: NOX1 inhibition assay (L-012), HEK293 cells stably overexpressing human NOX1; assay type: cell-based; details: HEK293-hNOX1, PMA stimulated
T1 construct: pLV-CMV-hNOX1-puro (NM_007052.5); host or cells: HEK293 (CLS GmbH), lentiviral transduction
T1 sequence (Q9Y5S8 1-564): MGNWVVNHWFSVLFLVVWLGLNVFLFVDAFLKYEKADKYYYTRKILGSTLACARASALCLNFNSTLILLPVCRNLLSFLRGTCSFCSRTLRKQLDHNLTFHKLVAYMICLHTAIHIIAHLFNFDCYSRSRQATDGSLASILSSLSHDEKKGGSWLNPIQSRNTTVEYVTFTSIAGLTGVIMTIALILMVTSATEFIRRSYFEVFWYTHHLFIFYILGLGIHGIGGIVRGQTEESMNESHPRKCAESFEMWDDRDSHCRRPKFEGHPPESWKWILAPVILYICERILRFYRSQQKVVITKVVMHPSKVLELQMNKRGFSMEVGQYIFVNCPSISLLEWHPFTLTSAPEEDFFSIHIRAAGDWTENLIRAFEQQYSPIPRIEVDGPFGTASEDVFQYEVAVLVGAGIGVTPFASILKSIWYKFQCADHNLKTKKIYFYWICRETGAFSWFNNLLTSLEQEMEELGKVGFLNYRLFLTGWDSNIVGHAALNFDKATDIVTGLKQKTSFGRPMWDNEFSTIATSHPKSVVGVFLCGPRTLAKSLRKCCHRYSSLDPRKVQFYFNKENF
T1 sequence (P13498 2-195 partner limits assumed): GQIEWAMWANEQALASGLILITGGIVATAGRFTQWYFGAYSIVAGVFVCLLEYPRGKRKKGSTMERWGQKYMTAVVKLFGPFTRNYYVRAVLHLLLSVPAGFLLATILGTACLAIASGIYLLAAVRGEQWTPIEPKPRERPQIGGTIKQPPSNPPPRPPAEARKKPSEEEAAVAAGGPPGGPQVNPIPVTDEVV
Description: Plasmids are Purchased from Vectorbuilder. • for HEK-hNOX1 all necessary subunits are cloned accordingly: • pLV-CMV-hNOX1-puro (NM_007052.5) • pLV-CMV-hNOXO1-blas (NM_172168.3) • pLV-CMV-hp22phox-hygro (NM_000101.4) • pLV-CMV-hNOXA1-neo (NM_006647.2) • for HEK-hNOX3 • pLV-CMV-hNOX3-puro (NM_015718.3)
3rd generation lentiviral particles are produced in HEK293 suspension cells by transient transfection of three helper and expression plasmids. Crucial lentivirus supernatants are harvested, clarified by filtration and concentrated by precipitation. Lentivirus titers are determined in transducing units in (TU/mL) by transduction of HT1080 cells and colony forming assay. Parental HEK293 cells, purchased from CLS GmbH, are transduced with replication-incompetent 3rd generation lentiviral particles (MOI 2) and expanded for at least 2 weeks before cryopreservation of tested lots. During cultivation, medium is changed three times per week and cells are sub-cultured at least once per week. Selection antibiotics are added according to the plasmids (1 μg/ml puromycin, 1.5 μg/ml blasticidin, 200 μg/ml G418 and 100 μg/ml hygromycin).
Evaluation of the NOX4 inhibitors on NOX1 activity is assessed in HEK293 cells stably overexpressing human NOX1 (hNOX1).
Lastly, 8-amino-5-chloro-2,3-dihydro-7-phenyl-pyrido[3,4-d]pyridazine-1,4-dione sodium salt (L-012, CAS 143556-24-5) is added at 400 μM to all wells, and cells are incubated in an incubator for an additional 3 h. Afterwards luminescence is measured with a SpectraMax Paradigm Microplate Reader.

human NOX4 (hNOX4) = target: T2, human NOX4 (hNOX4) (Homo sapiens, UniProt Q9NPH5); assay: cell-based
T2 sequence (Q9NPH5 1-578): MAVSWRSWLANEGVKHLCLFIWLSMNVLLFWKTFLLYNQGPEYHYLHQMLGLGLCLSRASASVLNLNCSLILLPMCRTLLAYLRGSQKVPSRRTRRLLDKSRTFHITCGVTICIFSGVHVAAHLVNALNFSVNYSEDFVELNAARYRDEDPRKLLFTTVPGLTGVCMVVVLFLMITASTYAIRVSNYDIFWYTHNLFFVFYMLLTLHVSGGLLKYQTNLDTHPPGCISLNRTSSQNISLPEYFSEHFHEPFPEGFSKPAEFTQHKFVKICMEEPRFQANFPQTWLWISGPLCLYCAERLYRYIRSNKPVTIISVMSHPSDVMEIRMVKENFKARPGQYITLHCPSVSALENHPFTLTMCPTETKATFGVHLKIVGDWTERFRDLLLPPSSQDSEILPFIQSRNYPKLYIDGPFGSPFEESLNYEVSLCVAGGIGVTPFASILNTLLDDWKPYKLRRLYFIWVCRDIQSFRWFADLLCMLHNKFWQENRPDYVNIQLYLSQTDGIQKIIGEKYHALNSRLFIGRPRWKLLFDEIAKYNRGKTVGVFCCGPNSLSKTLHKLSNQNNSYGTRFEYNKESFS
T2 sequence (P13498 2-195 partner limits assumed): T1 sequence (P13498 2-195 partner limits assumed)
Description: The synthetic gene phNOX4_DNA3_1_Zeo (Accession: AAF68973) is assembled from synthetic oligonucleotides and/or PCR products. The fragment is cloned into pcDNA3.1_Zeo_A011 using NheI and XhoI cloning sites. The plasmid DNA is purified from transformed bacteria and its concentration is determined by UV spectroscopy. The final construct is verified by sequencing. The plasmid is transfected via electroporation (Amaxa electroporation device) in combination with Nucleofector Kit V. Selection of NOX4 overexpressing genes is achieved using selection antibiotic Zeocin.
The inhibitory activity of the example compounds of the invention is determined using the following procedure:
Cells are cultured in the Dulbecco's Modified Eagle Medium (DMEM) media containing 4.5 g/L glucose supplemented with 10% fetal calf serum and 250 μg/ml Zeocin in an incubator at 37° C. with 5% CO2. For the assay, cells are seeded in 384 well plates.
After incubation Lumigen HyPerBlu™ is added and cells are incubated for additional 30 min at 24° C. in a humidified incubator. Next, luminescence is measured using an Envision Multimode Plate reader to determine levels of produced H2O2 in the wells.

NOX4 = target: T3, NOX4 (Homo sapiens, UniProt Q9NPH5); details: modified HEK cells, Amplex Red; read-out: NOX4 IC50 [μM] as disclosed in WO2016207785; cited from earlier work
T3 construct: host or cells: modified HEK cells
T3 sequence (Q9NPH5 1-578): T2 sequence (Q9NPH5 1-578)
T3 sequence (P13498 2-195 partner limits assumed): T1 sequence (P13498 2-195 partner limits assumed)

Row | SMILES | clearance in human hepatocytes (human hepatocytes) [% QH] | IC50 (human NOX1 (hNOX1)) [nM] | IC50 (human NOX4 (hNOX4)) | IC50 (NOX4) [µM]
1 | O=c1c2scnc2nc(SCc2cccc(F)c2)n1-c1ccc(O)cc1 [Example 1, 5-((3-Fluorobenzyl)thio)-6-(4-hydroxyphenyl)thiazolo[4,5-d]pyrimidin-7(6H)-one] | 52 | > 100000 | 560 nM and 555 nM | 0.34
2 | O=C(Nc1ccc2oc(N3CCC34COC4)nc2c1)c1ccc2c(c1)CCO2 [Example 15 of WO2016207785] | 29 | – | – | –
3 | O=C(Nc1ccc2c(c1)CCO2)c1ccc2oc(N3CCC34COC4)nc2c1 [Example 80] | 46 | – | – | –
4 | O=c1c2scnc2nc(SCc2ccc(Cl)cc2)n1-c1cccnc1 [reference compound] | – | – | 5450 nM | –
5 | Cc1cc(F)ccc1CSc1nc2ncsc2c(=O)n1-c1cccnc1 [reference compound] | – | – | 8120 nM | –
6 | O=c1c2scnc2nc(SCc2c(F)cc(F)cc2F)n1-c1cncc(F)c1 [reference compound] | – | – | 1650 nM | –
